From patent publication US11292803B2, “Bioreducible N-oxide-based probes for imaging of hypoxia” (THE BOARD OF TRUSTEES OF THE UNIVERSITY OF ILLINOIS, priority 2018, dated 2022)

What was measured:
[1] = Photophysical characterization (absorbance, emission, extinction coefficient, quantum yield); type: physicochemical
[2] = system: CYP450-rich rat liver microsomes
Experimental: FIG. 4. […] (a) Representative PA image (770 nm) of reaction mixtures incubated under normoxic or hypoxic conditions for 2 h, then quenched with an equal volume of acetonitrile. Dashed lines indicate positioning of FEP tubes. (b) Change in PA signal (770 nm) produced after 2 h incubation of HyP-1 (10 μM) with rat liver microsomes (RLM) (200 μg/mL) and NADPH (50 μM) in normoxic and hypoxic conditions (n=3). (c) Ratiometric fluorescence turn-on after 2 h incubation of HyP-1 (2 μM) with RLM ([…]) and NADPH (50 μM) in normoxic or hypoxic conditions (n=3). (d) Normalized fluorescent turn-on after 1 h hypoxic incubation of HyP-1 (2 μM) with RLM (100 μg/mL) and NADPH (50 μM) under various conditions. Statistical significance represents a comparison to the hypoxic control (n=6). Results with error bars are represented as mean±SD. **p<0.01, ***p<0.001, ****p<0.0001.
The responsiveness of HyP-1 to hypoxia was first evaluated in vitro via fluorescence by incubating HyP-1 with CYP450-rich rat liver microsomes under atmospheric (normoxic) and oxygen-deprived (hypoxic) conditions. […] The PA response of HyP-1 under identical conditions was evaluated by quenching the reaction mixtures with an equal volume of acetonitrile and transferring the solutions into fluorinated ethylene propylene (FEP) tubes, which were inserted into the centre of a 2 cm thick agarose-based tissue-mimicking phantom.
For hypoxic assays only, cuvettes were sealed with septa, then evacuated and filled with N2 (×3) prior to use. Potassium phosphate buffer (0.1 M, pH 7.4) and NADPH (0.5 mM) were degassed with N2 for 30 minutes. For all assays, phosphate buffer (889 μL) rat liver microsomes (200 μg/mL) and HyP-1 (1 μL, 2 mM in DMSO) were added to the cuvette and pre-incubated at 37° C. for 5 minutes. NADPH (100 μL) was added and incubation continued with fluorescence spectra acquisition occurring at the indicated time points. Spectra were acquired according to the following parameters: λex=672, emission range=685-800 nm and λex=750, emission range=760-900 nm. For BIPY and DPI experiments, the compounds were added from stock solutions (1 M BIPY in DMSO and 50 mM DPI in deionized water) following the 5 minute preincubation, and the buffer volume was adjusted such that the total volume in the cuvette was equal to 1 mL. Deactivated microsomes were prepared by heating in a 45° C. water bath for 30 minutes.

4T1 cells = experiment: Ratiometric fluorescence of cells, IVIS Spectrum; type: cell-based, murine; settings: hypoxic 4T1 cells
Experimental: Ratiometric fluorescence imaging was also performed on 4T1 cells cultured in 6-well plates using an IVIS Spectrum imaging system. Cells were stained with a 5 μM solution of HyP-1 and incubated in either normoxic or hypoxic conditions for 4 hours (FIG. 5c). […] To further verify the in vitro results and determine the cellular factors responsible for HyP-1 reduction, cells were also stained with HyP-1 solutions containing either BIPY or DPI at multiple concentrations and incubated under hypoxic conditions.
Authenticated 4T1 cells were purchased from ATCC. Cells were grown in RPMI 1640 medium supplemented with 10% fetal bovine serum. Cells were cultured at 37° C. in 5% CO2 and 20% 02 for normoxic conditions. Hypoxic cell culture was performed by incubating cells in a sealed container with a Mitsubishi AnaeroPack™ anaerobic gas generator. Hypoxic conditions were verified with the use of a Mitsubishi RT Anaero-Indicator.
For cellular imaging using the IVIS Spectrum imaging system, cells were plated in a 6-well plate at an initial density of 1.7×10^4 cells/mL and allowed to grow until 60-80% confluent (approximately 3 days). Media was removed and cells were washed with PBS. A […] solution of HyP-1 in serum-free medium was added, and cells were incubated under normoxic or hypoxic conditions for 4 hours. For BIPY and DPI experiments, the staining solution was supplemented with the compound at the appropriate concentration, and ratiometric turn-on was reported relative to a vehicle control. Images were obtained using excitation and emission filter sets of 675/720 nm and 745/800 nm. Regions of interest (ROIs) were drawn around cell-containing wells, and ratiometric signal was calculated by determining the ratio of radiant efficiency corresponding to 800 nm and 720 nm emissions.

ischemic hindlimb tissue = experiment: In vivo fluorescence imaging of hindlimb ischemia model; parameters: species or system BALB/c mice; settings: 5 mM co-administered, ischemic hindlimb
Experimental: To visualize the response of HyP-1 in a model of rapidly developing hypoxia, a murine hindlimb ischemia model of peripheral artery disease was employed. Ischemia was induced in the right hindlimb of BALB/c mice via ligation of the femoral artery. […] After a 1-hour recovery period, HyP-1 (50 μL, 50 μM) was administered via intramuscular injection into both hindlimbs of the mouse. To visualize the time-dependent response of HyP-1 in the ischemic and non-ischemic tissue, ratiometric fluorescence imaging was performed over the course of 1 hour immediately following injection. […]
All in vivo imaging experiments were performed with the approval of the Institutional Animal Care and Use Committee of the University of Illinois at Urbana-Champaign, following the principles outlined by the American Physiological Society on research animal use. […] Animals that underwent unsuccessful surgery as determined by laser Doppler perfusion imaging were excluded from analysis.
Images were obtained using epi-fluorescence with excitation filters of 675 and 745 and corresponding emission filters of 720 and 800, respectively. […] ROIs of equal area were drawn around signals, and the total radiant efficiency in each ROI was determined. Ratiometric signal was calculated by determining the ratio of radiant efficiency corresponding to 800 nm and 720 nm emissions.

SMILES	Φ ([1]; Table 2)	ε ([1]; Table 2)	λabs ([1]; Table 2) [nm]	further results
[O-][N+]1(c2ccc(-c3cc(-c4ccccc4)c4n3[B-](F)(F)[N+]3=C(c5ccc(N6CCOCC6)cc5)C=C(c5ccccc5)C3=N4)cc2)CCOCC1 [rHyP-5]	0.049	9.2 × 10^4 M^−1 · cm^1	718	–
CCN(CC)c1ccc(-c2cc(-c3ccccc3)c3n2[B-](F)(F)[N+]2=C(c4ccccc4)C=C(c4ccccc4)C2=N3)cc1 [red-HyP-650, 4-(5,5-difluoro-1,7,9-triphenyl-5H-54,64-dipyrrolo[1,2-c:2′,1′-f][1,3,5,2]triazaborinin-3-yl)-N,N-diethylaniline]	–	–	–	Φ (fluorescence quantum yield) ([1]; in CHCl3 (Table 3)): 0.069; ε ([1]; in CHCl3 (Table 3)): 8.1 × 10^4 M^−1 · cm^1; λabs ([1]; in CHCl3 (Table 3)): 740 nm
[Cl-].c1ccc([I+]c2ccccc2)cc1 [DPI, diphenyliodonium chloride, reference compound]	–	–	–	effect on HyP-1 turn-on response / reduction by rat liver microsomes [2]: inhibition of HyP-1 reduction was achieved; inhibition of HyP-1 ratiometric fluorescence in cells (4T1 cells; multiple concentrations (100, 500 μM)): significant dose-dependent inhibition
CCN(CC)c1ccc(C2=[N+]3C(=Nc4c(-c5ccccc5)cc(-c5ccc(N(CC)CC)cc5)n4[B-]3(F)F)C(c3ccccc3)=C2)cc1 [red-rHyP-1, 4,4′-(5,5-difluoro-1,9-diphenyl-5H-4λ^4,5λ^4-dipyrrolo[1,2-c:2′,1′-f][1,3,5,2]triazaborinine-3,7-diyl)bis(N,N-diethylaniline)]	0.013	9.9 × 10^4 M^−1 · cm^1	818	–
CCCN(CCC)c1ccc(C2=[N+]3C(=Nc4c(-c5ccccc5)cc(-c5ccc(N(CCC)CCC)cc5)n4[B-]3(F)F)C(c3ccccc3)=C2)cc1 [red-rHyP-3]	0.010	9.3 × 10^4 M^−1 · cm^1	826	–
[O-][N+]1(c2ccc(-c3cc(-c4ccccc4)c4n3[B-](F)(F)[N+]3=C(c5ccc(N6CCCCC6)cc5)C=C(c5ccccc5)C3=N4)cc2)CCCCC1 [rHyP-4]	0.011	9.1 × 10^4 M^−1 · cm^1	748	–
CN(C)c1ccc(C2=[N+]3C(=Nc4c(-c5ccccc5)cc(-c5ccc([N+](C)(C)[O-])cc5)n4[B-]3(F)F)C(c3ccccc3)=C2)cc1 [rHyP-2]	0.021	4.6 × 10^4 M^−1 · cm^1	738	–
CCN(CC)c1ccc(C2=[N+]3C(=Nc4c(-c5ccccc5)cc(-c5ccc([N+]([O-])(CC)CC)cc5)n4[B-]3(F)F)C(c3ccccc3)=C2)cc1 [rHyP-1, 4-(7-(4-(diethylamino)phenyl)-5,5-difluoro-1,9-diphenyl-5H-5λ^4,6λ^4-dipyrrolo[1,2-c:2′,1′-f][1,3,5,2]triazaborinin-3-yl)-N,N-diethylaniline oxide]	0.013	5.8 × 10^4 M^−1 · cm^1	749	–
F[B-]1(F)n2c(-c3ccc(N4CCCCC4)cc3)cc(-c3ccccc3)c2N=C2C(c3ccccc3)=CC(c3ccc(N4CCCCC4)cc3)=[N+]21 [red-rHyP-4]	0.017	7.6 × 10^4 M^−1 · cm^1	787	–
CN(C)c1ccc(C2=[N+]3C(=Nc4c(-c5ccccc5)cc(-c5ccc(N(C)C)cc5)n4[B-]3(F)F)C(c3ccccc3)=C2)cc1 [red-rHyP-2]	0.023	8.2 × 10^4 M^−1 · cm^1	798	–
CC[N+]([O-])(CC)c1ccc(-c2cc(-c3ccccc3)c3n2[B-](F)(F)[N+]2=C(c4ccccc4)C=C(c4ccccc4)C2=N3)cc1 [HyP-650, 4-(5,5-difluoro-1,7,9-triphenyl-5H-54,64-dipyrrolo[1,2-c:2′,1′-f][1,3,5,2]triazaborinin-3-yl)-N,N-diethylaniline oxide]	–	–	–	Φ (fluorescence quantum yield) ([1]; in CHCl3 (Table 3)): 0.027; ε ([1]; in CHCl3 (Table 3)): 4.0 × 10^4 M^−1 · cm^1; λabs ([1]; in CHCl3 (Table 3)): 650 nm
F[B-]1(F)n2c(-c3ccc(N4CCOCC4)cc3)cc(-c3ccccc3)c2N=C2C(c3ccccc3)=CC(c3ccc(N4CCOCC4)cc3)=[N+]21 [red-rHyP-5]	0.085	7.6 × 10^4 M^−1 · cm^1	758	–
CCCN(CCC)c1ccc(C2=[N+]3C(=Nc4c(-c5ccccc5)cc(-c5ccc([N+]([O-])(CCC)CCC)cc5)n4[B-]3(F)F)C(c3ccccc3)=C2)cc1 [rHyP-3]	0.013	8.0 × 10^4 M^−1 · cm^1	747	–
c1ccc(-c2ccccn2)nc1 [BIPY, 2,2′-bipyridine, reference compound]	–	–	–	effect on HyP-1 turn-on response / reduction by rat liver microsomes [2]: no significant inhibition; effect on cellular response to HyP-1 (4T1 cells; 1 mM): no effect; effect on ratiometric fluorescence of HyP-1 in cells (4T1 cells; 5 mM): only slight reduction; ratiometric fluorescence enhancement with co-administration versus HyP-1 alone (ischemic hindlimb tissue): statistically indistinguishable
